Measurements as given in patent US20260262643A1, “HERBICIDAL BENZOXAZINES” (FMC CORPORATION, priority 2022, published 2026).

Experiments:
[1] = test system: wheat; test: Test C postemergence; format: in vivo, Triticum aestivum; conditions: 10 days
How it was run: (§1)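 Visual injury ratings on a 0–100 scale (100 = complete control) were made against untreated controls 10 days after treatment in the greenhouse. Compounds, formulated with surfactant in non-phytotoxic solvent, were sprayed on soil preemergence or onto one- to two-leaf plants 2–10 cm tall postemergence.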

[2] = test system: ragweed; test: Test C preemergence; format: in vivo, Ambrosia artemisiifolia; conditions: 0 to 100 scale (0 no effect, 100 complete control)
How it was run: as §1

[3] = test system: galium; test: Test C postemergence; format: in vivo, Galium aparine; conditions: 10 days
How it was run: as §1

[4] = test system: blackgrass; test: Test C preemergence; format: in vivo, Alopecurus myosuroides; conditions: 0 to 100 scale (0 no effect, 100 complete control)
How it was run: as §1

[5] = test system: ducksalad; test: Test D flooded paddy test; format: in vivo, Heteranthera limosa; conditions: 250 g ai/ha, applied to paddy water, visual rating after 13 to 14 days, scale 0 to 100 (0 no effect, 100 complete control)
How it was run: (§2)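 At the 2-leaf stage, floodwater 3 cm deep received the test compound; that depth persisted throughout. Plants scored visually 13 to 14 days on, 0 (no effect) to 100 (complete control), dash indicating no result.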

[6] = test system: ragweed; test: Test C postemergence; format: in vivo, Ambrosia artemisiifolia; conditions: 10 days
How it was run: as §1

[7] = test system: pigweed, palmer; test: Test C preemergence; format: in vivo, Amaranthus palmeri; conditions: 0 to 100 scale (0 no effect, 100 complete control)
How it was run: as §1

[8] = test system: horseweed; test: Test C postemergence; format: in vivo, Erigeron canadensis; conditions: 10 days
How it was run: as §1

[9] = test system: kochia; test: Test C postemergence; format: in vivo, Bassia scoparia; conditions: 10 days
How it was run: as §1

[10] = test system: green foxtail; test: Test C preemergence; format: in vivo, Setaria viridis; conditions: 0 to 100 scale (0 no effect, 100 complete control)
How it was run: as §1

[11] = test system: corn; test: Test C preemergence; format: in vivo, Zea mays; conditions: 0 to 100 scale (0 no effect, 100 complete control)
How it was run: as §1

[12] = test system: sedge, umbrella; test: Test D flooded paddy test; format: in vivo, Cyperus difformis; conditions: 250 g ai/ha, applied to paddy water, visual rating after 13 to 14 days, scale 0 to 100 (0 no effect, 100 complete control)
How it was run: as §2

[13] = test system: barnyardgrass; test: Test C postemergence; format: in vivo, Echinochloa crusgalli; conditions: 10 days
How it was run: as §1

[14] = test system: barnyardgrass; test: Test C preemergence; format: in vivo, Echinochloa crusgalli; conditions: 0 to 100 scale (0 no effect, 100 complete control)
How it was run: as §1

[15] = test system: soybean; test: Test C preemergence; format: in vivo, Glycine max; conditions: 0 to 100 scale (0 no effect, 100 complete control)
How it was run: as §1

[16] = test system: blackgrass; test: Test C postemergence; format: in vivo, Alopecurus myosuroides; conditions: 10 days
How it was run: as §1

[17] = test system: wheat; test: Test C preemergence; format: in vivo, Triticum aestivum; conditions: 0 to 100 scale (0 no effect, 100 complete control)
How it was run: as §1

[18] = test system: oat, wild; test: Test C postemergence; format: in vivo, Avena fatua; conditions: 10 days
How it was run: as §1

[19] = test system: oat, wild; test: Test C preemergence; format: in vivo, Avena fatua; conditions: 0 to 100 scale (0 no effect, 100 complete control)
How it was run: as §1

[20] = test system: ryegrass, Italian; test: Test C preemergence; format: in vivo, Lolium multiflorum; conditions: 0 to 100 scale (0 no effect, 100 complete control)
How it was run: as §1

[21] = test system: corn; test: Test C postemergence; format: in vivo, Zea mays; conditions: 10 days
How it was run: as §1

[22] = test system: green foxtail; test: Test C postemergence; format: in vivo, Setaria viridis; conditions: 10 days
How it was run: as §1

[23] = test system: kochia; test: Test C preemergence; format: in vivo, Bassia scoparia; conditions: 0 to 100 scale (0 no effect, 100 complete control)
How it was run: as §1

[24] = test system: pigweed, palmer; test: Test C postemergence; format: in vivo, Amaranthus palmeri; conditions: 10 days
How it was run: as §1

[25] = test system: rice; test: Test D flooded paddy test; format: in vivo, Oryza sativa; conditions: 250 g ai/ha, applied to paddy water, visual rating after 13 to 14 days, scale 0 to 100 (0 no effect, 100 complete control)
How it was run: as §2

[26] = test system: barnyardgrass; test: Test D flooded paddy test; format: in vivo, Echinochloa crus-galli; conditions: 250 g ai/ha, applied to paddy water, visual rating after 13 to 14 days, scale 0 to 100 (0 no effect, 100 complete control)
How it was run: as §2

[27] = test system: ryegrass, Italian; test: Test C postemergence; format: in vivo, Lolium multiflorum; conditions: 10 days
How it was run: as §1

[28] = test system: soybean; test: Test C postemergence; format: in vivo, Glycine max; conditions: 10 days
How it was run: as §1

[29] = 125 g ai/ha, postemergence, 0 to 100 scale, 0 no effect, 100 complete control
[30] = Postemergence, 500 g ai/ha, visual 0 to 100 scale (0 no effect, 100 complete control)
[31] = Preemergence, 500 g ai/ha, visual rating after 10 days
[32] = Test C, preemergence, 125 g ai/ha

CCn1cnc(-c2cccc(C(=O)N3C[C@H](C)Oc4c(Cl)cccc43)c2)n1 [Compound 173]
Plant response rating, Wheat [1, 29]: 0
Plant response rating, Wheat [1, 30]: 0
Plant response rating, Ragweed [2, 31]: 60
Ragweed plant response rating [2, 32]: 30
Plant response rating, Galium [3, 29]: 20
Plant response rating, Galium [3, 30]: 50
Plant response rating, Blackgrass [4, 31]: 0
Blackgrass plant response rating [4, 32]: 0
Plant response rating, Ducksalad (Flood) [5]: 0
Plant response rating, Ragweed [6, 29]: 0
Plant response rating, Ragweed [6, 30]: 30
Plant response rating, Pigweed, Palmer [7, 31]: 0
Pigweed, Palmer plant response rating [7, 32]: 0
Plant response rating, Horseweed [8, 29]: 10
Plant response rating, Horseweed [8, 30]: 10
Plant response rating, Kochia [9, 29]: 0
Plant response rating, Kochia [9, 30]: 30
Plant response rating, Foxtail, Green [10, 31]: 0
Foxtail, Green plant response rating [10, 32]: 0
Plant response rating, Corn [11, 31]: 0
Corn plant response rating [11, 32]: 0
Plant response rating, Sedge, Umbrella (Flood) [12]: 0
Plant response rating, Barnyardgrass [13, 29]: 10
Plant response rating, Barnyardgrass [13, 30]: 10
Plant response rating, Barnyardgrass [14, 31]: 0
Barnyardgrass plant response rating [14, 32]: 0
Plant response rating, Soybean [15, 31]: 0
Soybean plant response rating [15, 32]: 0
Plant response rating, Blackgrass [16, 29]: 0
Plant response rating, Blackgrass [16, 30]: 0
Plant response rating, Wheat [17, 31]: 0
Wheat plant response rating [17, 32]: 0
Plant response rating, Oat, Wild [18, 29]: 0
Plant response rating, Oat, Wild [18, 30]: 0
Plant response rating, Oat, Wild [19, 31]: 0
Oat, Wild plant response rating [19, 32]: 0
Plant response rating, Ryegrass, Italian [20, 31]: 50
Ryegrass, Italian plant response rating [20, 32]: 20
Plant response rating, Corn [21, 29]: 0
Plant response rating, Corn [21, 30]: 0
Plant response rating, Foxtail, Green [22, 29]: 0
Plant response rating, Foxtail, Green [22, 30]: 40
Plant response rating, Kochia [23, 31]: 0
Kochia plant response rating [23, 32]: 0
Plant response rating, Pigweed, Palmer [24, 29]: 0
Plant response rating, Pigweed, Palmer [24, 30]: 20
Plant response rating, Rice (Flood) [25]: 0
Plant response rating, Barnyardgrass (Flood) [26]: 0
Plant response rating, Ryegrass, Italian [27, 29]: 0
Plant response rating, Ryegrass, Italian [27, 30]: 0
Plant response rating, Soybean [28, 29]: 0
Plant response rating, Soybean [28, 30]: 30
